Test results from article PMC9569420 (Communications Biology, 2022).

Key:
[1] = molecular target: T1, JNK1 (Homo sapiens, UniProt P45983); assay: HotSpot kinase assay; type: biochemical; conditions: read-out: % Enzyme Activity (relative to DMSO controls)
T1 construct: purchased Reaction Biology Corporation

[2] = molecular target: T2, IR (Homo sapiens, UniProt P06213); assay: biochemical
T2 construct: purchased Reaction Biology Corporation

[3] = molecular target: T3, AKT3 (Homo sapiens, UniProt Q9Y243); assay: biochemical
T3 construct: purchased Reaction Biology Corporation

[4] = molecular target: T4, P38g (Homo sapiens, UniProt P53778); assay: HotSpot kinase assay; type: biochemical; conditions: read-out: % Enzyme Activity (relative to DMSO controls)
T4 construct: purchased Reaction Biology Corporation

[5] = molecular target: T5, SIK1 (Homo sapiens, UniProt P57059); assay: HotSpot kinase assay; type: biochemical; conditions: read-out: % Enzyme Activity (relative to DMSO controls)
T5 construct: purchased Reaction Biology Corporation

[6] = molecular target: T6, ULK1 (Homo sapiens, UniProt O75385); assay: biochemical; conditions: read-out: % Enzyme Activity (relative to DMSO controls)
T6 construct: purchased Reaction Biology Corporation

[7] = molecular target: T7, FER (Homo sapiens, UniProt P16591); assay: HotSpot kinase assay; type: biochemical; conditions: read-out: % Enzyme Activity (relative to DMSO controls)
T7 construct: purchased Reaction Biology Corporation

[8] = molecular target: T8, CDK1/cyclin B (Homo sapiens, UniProt P06493); assay: HotSpot kinase assay; type: biochemical; conditions: read-out: % Enzyme Activity (relative to DMSO controls)
T8 construct: purchased Reaction Biology Corporation

[9] = test system: HaCat cells; assay: apoptosis assay (activated caspases, SYTOX Green); type: cell-based, human; conditions: 10µM
Experimental: Cell proliferation and viability were determined using the Cell Titer 96 Aqueous One Solution and optical density was determined using a SpectraMax M5e Molecular Devices multidetection microplate reader. […] The cells were then fixed and stained for activated caspases (red) and SYTOX Green (for integrity of plasma membrane) by Image-iT^TM LIVE red Poly Caspase Detection kit. Nuclei were stained with Hoechst. Images were acquired by laser confocal microscope ZeissLive/DuoScan equipped with oil immersion objectives 63 × 1.1 and captured in an optical slice of 0.37 µm with appropriate filters. Alternatively, immunoblots were prepared and probed with antibodies to cleaved PARP-1 or cleaved caspase 8.

[10] = molecular target: T9, DMPK (Homo sapiens, UniProt Q09013); assay: HotSpot kinase assay; type: biochemical; conditions: read-out: % Enzyme Activity (relative to DMSO controls)
T9 construct: purchased Reaction Biology Corporation

[11] = molecular target: T10, CDC7/DBF4 (Homo sapiens, UniProt O00311); assay: HotSpot kinase assay; type: biochemical; conditions: read-out: % Enzyme Activity (relative to DMSO controls)
T10 construct: purchased Reaction Biology Corporation

[12] = molecular target: T11, NEK1 (Homo sapiens, UniProt Q96PY6); assay: HotSpot kinase assay; type: biochemical; conditions: read-out: % Enzyme Activity (relative to DMSO controls)
T11 construct: purchased Reaction Biology Corporation

[13] = molecular target: T12, MAPKAPK2 (Homo sapiens, UniProt P49137); assay: HotSpot kinase assay; type: biochemical; conditions: read-out: % Enzyme Activity (relative to DMSO controls)
T12 construct: purchased Reaction Biology Corporation

[14] = molecular target: T13, TRKB (Homo sapiens, UniProt Q16620); assay: HotSpot kinase assay; type: biochemical; conditions: read-out: % Enzyme Activity (relative to DMSO controls)
T13 construct: purchased Reaction Biology Corporation

[15] = molecular target: T14, SRMS (Homo sapiens, UniProt Q9H3Y6); assay: HotSpot kinase assay; type: biochemical; conditions: read-out: % Enzyme Activity (relative to DMSO controls)
T14 construct: purchased Reaction Biology Corporation

[16] = test system: HSV-2(G); assay: HSV plaque assay, HaCat cells; type: cell-based; conditions: Human alphaherpesvirus 2, HaCaT, read-out: inhibition of HSV-2 infection
Experimental: After 48 h incubation, plaques were counted by immunoassay using an anti–human IgG antibody peroxidase conjugate (PA1-86064, Thermo Fisher)[33]. […] Western blots were prepared and probed for gD as a marker of bound virus and β-actin as a control.

[17] = molecular target: T15, MLK1/MAP3K9 (Homo sapiens, UniProt P80192); assay: HotSpot kinase assay; type: biochemical; conditions: read-out: % Enzyme Activity (relative to DMSO controls)
T15 construct: purchased Reaction Biology Corporation

[18] = molecular target: T16, PKD2/PRKD2 (Homo sapiens, UniProt Q9BZL6); assay: HotSpot kinase assay; type: biochemical; conditions: read-out: % Enzyme Activity (relative to DMSO controls)
T16 construct: purchased Reaction Biology Corporation

[19] = molecular target: T17, TYRO3/SKY (Homo sapiens, UniProt Q06418); assay: HotSpot kinase assay; type: biochemical; conditions: read-out: % Enzyme Activity (relative to DMSO controls)
T17 construct: purchased Reaction Biology Corporation

[20] = molecular target: T18, KSR1 (Homo sapiens, UniProt Q8IVT5); assay: biochemical; conditions: read-out: % Enzyme Activity (relative to DMSO controls)
T18 construct: purchased Reaction Biology Corporation

[21] = molecular target: T19, CDK6/cyclin D1 (Homo sapiens, UniProt Q00534); assay: HotSpot kinase assay; type: biochemical; conditions: read-out: % Enzyme Activity (relative to DMSO controls)
T19 construct: purchased Reaction Biology Corporation

[22] = molecular target: T20, EIF2AK4 (Homo sapiens, UniProt Q9P2K8); assay: HotSpot kinase assay; type: biochemical; conditions: read-out: % Enzyme Activity (relative to DMSO controls)
T20 construct: purchased Reaction Biology Corporation

[23] = molecular target: T21, CDK17/cyclin Y (PCTK2) (Homo sapiens, UniProt Q00537); assay: HotSpot kinase assay; type: biochemical; conditions: read-out: % Enzyme Activity (relative to DMSO controls)
T21 construct: purchased Reaction Biology Corporation

[24] = molecular target: T22, TNK1 (Homo sapiens, UniProt Q13470); assay: HotSpot kinase assay; type: biochemical; conditions: read-out: % Enzyme Activity (relative to DMSO controls)
T22 construct: purchased Reaction Biology Corporation

[25] = molecular target: T23, LATS2 (Homo sapiens, UniProt Q9NRM7); assay: HotSpot kinase assay; type: biochemical; conditions: read-out: % Enzyme Activity (relative to DMSO controls)
T23 construct: purchased Reaction Biology Corporation

[26] = molecular target: T24, NEK11 (Homo sapiens, UniProt Q8NG66); assay: HotSpot kinase assay; type: biochemical; conditions: read-out: % Enzyme Activity (relative to DMSO controls)
T24 construct: purchased Reaction Biology Corporation

[27] = molecular target: T25, FGFR3 (Homo sapiens, UniProt P22607); assay: HotSpot kinase assay; type: biochemical; conditions: read-out: % Enzyme Activity (relative to DMSO controls)
T25 construct: purchased Reaction Biology Corporation

[28] = molecular target: T26, GRK6 (Homo sapiens, UniProt P43250); assay: HotSpot kinase assay; type: biochemical; conditions: read-out: % Enzyme Activity (relative to DMSO controls)
T26 construct: purchased Reaction Biology Corporation

[29] = molecular target: T27, PLK3 (Homo sapiens, UniProt Q9H4B4); assay: HotSpot kinase assay; type: biochemical; conditions: read-out: % Enzyme Activity (relative to DMSO controls)
T27 construct: purchased Reaction Biology Corporation

[30] = molecular target: T28, PKCzeta (Homo sapiens, UniProt Q05513); assay: HotSpot kinase assay; type: biochemical; conditions: read-out: % Enzyme Activity (relative to DMSO controls)
T28 construct: purchased Reaction Biology Corporation

[31] = molecular target: T29, LYN (Homo sapiens, UniProt P07948); assay: HotSpot kinase assay; type: biochemical; conditions: read-out: % Enzyme Activity (relative to DMSO controls)
T29 construct: purchased Reaction Biology Corporation

[32] = molecular target: T30, FYN (Homo sapiens, UniProt P06241); assay: HotSpot kinase assay; type: biochemical; conditions: read-out: % Enzyme Activity (relative to DMSO controls)
T30 construct: purchased Reaction Biology Corporation

[33] = molecular target: T31, CAMKK1 (Homo sapiens, UniProt Q8N5S9); assay: biochemical; conditions: read-out: % Enzyme Activity (relative to DMSO controls)
T31 construct: purchased Reaction Biology Corporation

[34] = molecular target: T32, LRRK2 (Homo sapiens, UniProt Q5S007); assay: HotSpot kinase assay; type: biochemical; conditions: read-out: % Enzyme Activity (relative to DMSO controls)
T32 construct: purchased Reaction Biology Corporation

[35] = molecular target: T33, ERN1/IRE1 (Homo sapiens, UniProt O75460); assay: HotSpot kinase assay; type: biochemical; conditions: read-out: % Enzyme Activity (relative to DMSO controls)
T33 construct: purchased Reaction Biology Corporation

[36] = molecular target: T34, DYRK1/DYRK1A (Homo sapiens, UniProt Q13627); assay: HotSpot kinase assay; type: biochemical; conditions: read-out: % Enzyme Activity (relative to DMSO controls)
T34 construct: purchased Reaction Biology Corporation

[37] = molecular target: T35, CDK5/p35 (Homo sapiens, UniProt Q00535); assay: HotSpot kinase assay; type: biochemical; conditions: read-out: % Enzyme Activity (relative to DMSO controls)
T35 construct: purchased Reaction Biology Corporation

[38] = read-out: % Enzyme Activity (relative to DMSO controls), 10µM

T3 sequence (Q9Y243 whole entry): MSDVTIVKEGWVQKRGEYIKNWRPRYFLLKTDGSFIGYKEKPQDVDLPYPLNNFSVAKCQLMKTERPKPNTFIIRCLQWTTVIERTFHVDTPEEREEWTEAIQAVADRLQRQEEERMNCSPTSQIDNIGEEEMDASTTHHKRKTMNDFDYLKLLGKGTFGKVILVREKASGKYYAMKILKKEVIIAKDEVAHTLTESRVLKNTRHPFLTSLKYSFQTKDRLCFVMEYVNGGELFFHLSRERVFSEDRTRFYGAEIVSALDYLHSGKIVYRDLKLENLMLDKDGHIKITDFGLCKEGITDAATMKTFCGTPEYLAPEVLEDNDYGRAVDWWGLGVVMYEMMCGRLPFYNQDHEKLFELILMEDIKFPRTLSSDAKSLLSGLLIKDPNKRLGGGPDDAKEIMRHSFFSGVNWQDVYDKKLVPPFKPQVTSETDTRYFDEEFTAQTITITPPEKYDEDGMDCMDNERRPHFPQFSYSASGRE
T2 sequence (P06213 980-1382 limits assumed): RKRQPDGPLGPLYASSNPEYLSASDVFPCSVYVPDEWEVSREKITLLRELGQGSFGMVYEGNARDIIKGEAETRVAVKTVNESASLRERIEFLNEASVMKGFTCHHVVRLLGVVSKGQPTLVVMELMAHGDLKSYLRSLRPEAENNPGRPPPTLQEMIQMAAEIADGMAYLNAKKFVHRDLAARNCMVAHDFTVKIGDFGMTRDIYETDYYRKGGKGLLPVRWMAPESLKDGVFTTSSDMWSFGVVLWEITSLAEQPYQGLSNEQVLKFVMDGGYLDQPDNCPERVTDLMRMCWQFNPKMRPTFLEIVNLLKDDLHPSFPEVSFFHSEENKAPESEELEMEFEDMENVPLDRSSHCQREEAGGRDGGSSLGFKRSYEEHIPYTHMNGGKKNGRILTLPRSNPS
T1 sequence (P45983 whole entry): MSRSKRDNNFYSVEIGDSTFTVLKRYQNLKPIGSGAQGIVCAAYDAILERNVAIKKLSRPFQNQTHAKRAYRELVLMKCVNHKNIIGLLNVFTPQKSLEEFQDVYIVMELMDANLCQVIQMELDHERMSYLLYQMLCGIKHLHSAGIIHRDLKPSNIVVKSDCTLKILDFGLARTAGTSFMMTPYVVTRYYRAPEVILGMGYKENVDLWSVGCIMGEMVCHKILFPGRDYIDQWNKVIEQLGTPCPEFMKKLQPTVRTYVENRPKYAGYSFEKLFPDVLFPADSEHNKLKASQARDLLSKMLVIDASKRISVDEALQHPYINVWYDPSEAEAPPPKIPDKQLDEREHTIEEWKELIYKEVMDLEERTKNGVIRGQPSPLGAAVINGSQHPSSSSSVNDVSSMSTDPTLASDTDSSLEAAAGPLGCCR
T12 sequence (P49137 whole entry): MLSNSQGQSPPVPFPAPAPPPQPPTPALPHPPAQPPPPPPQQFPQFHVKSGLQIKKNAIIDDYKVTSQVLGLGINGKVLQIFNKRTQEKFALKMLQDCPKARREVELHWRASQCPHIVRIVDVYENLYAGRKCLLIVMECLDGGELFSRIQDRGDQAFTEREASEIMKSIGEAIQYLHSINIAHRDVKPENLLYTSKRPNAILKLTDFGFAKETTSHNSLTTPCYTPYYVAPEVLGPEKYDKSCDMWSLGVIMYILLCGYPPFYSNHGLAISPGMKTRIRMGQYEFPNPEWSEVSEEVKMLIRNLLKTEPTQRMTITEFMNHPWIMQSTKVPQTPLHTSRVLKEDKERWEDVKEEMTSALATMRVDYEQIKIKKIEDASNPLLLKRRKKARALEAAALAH
T27 sequence (Q9H4B4 whole entry): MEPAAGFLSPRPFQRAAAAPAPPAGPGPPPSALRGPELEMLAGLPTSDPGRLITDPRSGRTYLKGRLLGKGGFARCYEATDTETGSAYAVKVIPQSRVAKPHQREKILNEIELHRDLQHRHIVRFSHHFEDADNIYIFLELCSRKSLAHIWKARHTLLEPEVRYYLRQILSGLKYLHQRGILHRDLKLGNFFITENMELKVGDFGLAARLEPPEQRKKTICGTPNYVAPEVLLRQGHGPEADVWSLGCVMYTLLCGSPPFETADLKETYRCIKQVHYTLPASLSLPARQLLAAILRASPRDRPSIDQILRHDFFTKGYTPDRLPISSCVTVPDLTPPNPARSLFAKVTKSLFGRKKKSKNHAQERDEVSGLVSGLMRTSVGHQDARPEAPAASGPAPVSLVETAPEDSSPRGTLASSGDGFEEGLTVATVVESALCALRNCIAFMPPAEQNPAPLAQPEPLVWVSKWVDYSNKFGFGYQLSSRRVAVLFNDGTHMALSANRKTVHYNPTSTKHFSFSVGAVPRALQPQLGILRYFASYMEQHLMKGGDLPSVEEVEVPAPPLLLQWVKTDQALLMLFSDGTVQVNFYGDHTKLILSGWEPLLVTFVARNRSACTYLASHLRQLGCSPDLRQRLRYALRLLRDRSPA
T4 sequence (P53778 whole entry): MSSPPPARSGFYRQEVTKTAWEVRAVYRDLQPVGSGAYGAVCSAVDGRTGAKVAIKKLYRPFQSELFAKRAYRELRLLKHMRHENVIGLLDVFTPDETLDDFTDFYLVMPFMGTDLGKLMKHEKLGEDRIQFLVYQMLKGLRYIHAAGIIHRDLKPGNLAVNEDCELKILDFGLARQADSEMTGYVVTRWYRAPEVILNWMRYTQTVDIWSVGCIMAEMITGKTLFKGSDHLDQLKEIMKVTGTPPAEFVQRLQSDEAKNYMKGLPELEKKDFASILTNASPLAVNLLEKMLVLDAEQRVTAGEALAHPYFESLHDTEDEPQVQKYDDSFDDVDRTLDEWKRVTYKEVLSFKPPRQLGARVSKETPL
T22 sequence (Q13470 whole entry): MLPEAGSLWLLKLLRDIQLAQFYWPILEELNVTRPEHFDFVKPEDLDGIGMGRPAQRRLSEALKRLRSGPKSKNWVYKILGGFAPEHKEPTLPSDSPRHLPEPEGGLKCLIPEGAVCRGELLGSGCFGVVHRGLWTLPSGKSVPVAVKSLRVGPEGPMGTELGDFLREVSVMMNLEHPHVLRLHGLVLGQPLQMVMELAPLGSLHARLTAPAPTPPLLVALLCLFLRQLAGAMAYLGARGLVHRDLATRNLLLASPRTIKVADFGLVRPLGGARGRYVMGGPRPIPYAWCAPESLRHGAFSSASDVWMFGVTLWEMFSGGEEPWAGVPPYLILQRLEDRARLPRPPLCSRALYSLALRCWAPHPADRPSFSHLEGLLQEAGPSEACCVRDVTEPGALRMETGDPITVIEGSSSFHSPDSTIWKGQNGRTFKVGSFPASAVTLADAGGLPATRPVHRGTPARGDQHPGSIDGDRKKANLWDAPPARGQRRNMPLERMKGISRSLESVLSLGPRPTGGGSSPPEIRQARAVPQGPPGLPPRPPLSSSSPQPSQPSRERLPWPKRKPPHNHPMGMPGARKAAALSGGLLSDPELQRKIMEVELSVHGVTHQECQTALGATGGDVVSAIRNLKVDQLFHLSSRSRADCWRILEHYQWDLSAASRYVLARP
T6 sequence (O75385 whole entry): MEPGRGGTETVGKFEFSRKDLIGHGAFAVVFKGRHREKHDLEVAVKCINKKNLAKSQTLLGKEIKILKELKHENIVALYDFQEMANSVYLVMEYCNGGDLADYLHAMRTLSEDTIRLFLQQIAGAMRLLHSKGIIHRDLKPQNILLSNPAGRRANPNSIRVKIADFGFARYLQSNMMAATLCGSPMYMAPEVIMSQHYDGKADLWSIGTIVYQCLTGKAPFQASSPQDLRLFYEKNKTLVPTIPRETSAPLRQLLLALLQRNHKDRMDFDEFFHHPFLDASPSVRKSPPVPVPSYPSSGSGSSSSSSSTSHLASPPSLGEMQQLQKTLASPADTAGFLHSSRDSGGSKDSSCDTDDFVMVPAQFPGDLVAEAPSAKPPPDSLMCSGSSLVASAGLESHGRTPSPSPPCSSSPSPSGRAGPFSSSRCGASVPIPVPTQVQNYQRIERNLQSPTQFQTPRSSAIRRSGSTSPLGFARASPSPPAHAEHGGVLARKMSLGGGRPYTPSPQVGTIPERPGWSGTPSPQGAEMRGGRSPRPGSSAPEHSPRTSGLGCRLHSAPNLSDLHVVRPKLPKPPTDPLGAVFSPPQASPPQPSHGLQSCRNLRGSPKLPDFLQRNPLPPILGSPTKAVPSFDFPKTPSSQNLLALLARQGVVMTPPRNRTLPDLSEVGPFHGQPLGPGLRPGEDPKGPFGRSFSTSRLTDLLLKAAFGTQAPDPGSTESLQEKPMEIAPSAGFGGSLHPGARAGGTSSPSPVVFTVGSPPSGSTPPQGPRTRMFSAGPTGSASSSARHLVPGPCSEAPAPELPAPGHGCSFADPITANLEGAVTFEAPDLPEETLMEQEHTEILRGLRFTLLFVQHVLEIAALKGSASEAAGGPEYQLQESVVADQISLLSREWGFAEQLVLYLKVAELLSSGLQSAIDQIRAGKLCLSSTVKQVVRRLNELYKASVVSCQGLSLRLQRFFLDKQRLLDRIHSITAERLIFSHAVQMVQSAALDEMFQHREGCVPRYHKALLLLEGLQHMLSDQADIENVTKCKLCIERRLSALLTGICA
T31 sequence (Q8N5S9 whole entry): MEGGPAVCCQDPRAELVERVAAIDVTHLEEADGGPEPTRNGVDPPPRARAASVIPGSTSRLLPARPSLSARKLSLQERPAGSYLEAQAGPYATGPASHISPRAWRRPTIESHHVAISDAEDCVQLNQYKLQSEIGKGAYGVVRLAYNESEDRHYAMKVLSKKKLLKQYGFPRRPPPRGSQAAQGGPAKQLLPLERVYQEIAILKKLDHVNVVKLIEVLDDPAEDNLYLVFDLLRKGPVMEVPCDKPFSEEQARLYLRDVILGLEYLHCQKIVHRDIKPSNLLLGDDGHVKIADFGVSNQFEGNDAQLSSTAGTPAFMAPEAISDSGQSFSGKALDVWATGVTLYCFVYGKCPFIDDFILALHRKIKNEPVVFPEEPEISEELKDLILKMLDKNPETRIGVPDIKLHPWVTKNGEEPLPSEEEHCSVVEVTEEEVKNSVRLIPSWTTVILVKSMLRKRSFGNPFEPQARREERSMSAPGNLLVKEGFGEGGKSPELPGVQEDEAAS

## CO[C@@H]1[C@H](N(C)C(=O)CCC(=O)NCc2cn(CCCS(=O)(=O)O)nn2)C[C@H]2O[C@]1(C)n1c3ccccc3c3c4c(c5c6ccccc6n2c5c31)C(=O)NC4 [CIMSS]
[1]
  remaining activity at 10 µM: 24.8%
[2]; Supplementary Table 1, Insulin Receptor, read-out: IC50 (Molar concentration)
  IC50: 803 nM
[2]; [38]
  remaining activity at 10 µM: 15.8%
[3]; Supplementary Table 1, read-out: IC50 (Molar concentration)
  IC50: 157 nM
[3]; [38]
  remaining activity at 10 µM: 11.4%
[3]; read-out: inhibition of Akt3
  inhibition at 10 µM: > 75%
[4]
  remaining activity at 10 µM: 30.3%
[5]
  remaining activity at 10 µM: 1%
[6]
  remaining activity at 10 µM: 13.6%
[7]
  remaining activity at 10 µM: 0.37%
[8]
  remaining activity at 10 µM: 13.6%
[9]
  induction of apoptosis: did not induce apoptosis
[10]
  remaining activity at 10 µM: 76.5%
[11]
  remaining activity at 10 µM: 3.98%
[12]
  remaining activity at 10 µM: 5.88%
[13]
  remaining activity at 10 µM: 69.9%
[14]
  remaining activity at 10 µM: 1.79%
[15]
  remaining activity at 10 µM: 91%
[16]
  inhibition at 10 µM: > 75%
[17]
  remaining activity at 10 µM: 4.06%
[18]
  remaining activity at 10 µM: 11.9%
[19]
  remaining activity at 10 µM: 23.6%
[20]
  remaining activity at 10 µM: 90.8%
[21]
  remaining activity at 10 µM: 63%
[22]
  remaining activity at 10 µM: 9.5%
[23]
  remaining activity at 10 µM: 54.2%
[24]
  remaining activity at 10 µM: 3.88%
[25]
  remaining activity at 10 µM: 6.54%
[26]
  remaining activity at 10 µM: 52%
[27]
  remaining activity at 10 µM: 4.66%
[28]
  remaining activity at 10 µM: 8.36%
[29]
  remaining activity at 10 µM: 98.2%
[30]
  remaining activity at 10 µM: 55.8%
[31]
  remaining activity at 10 µM: 2.5%
[32]
  remaining activity at 10 µM: 2.59%
[33]
  remaining activity at 10 µM: 1%
[34]
  remaining activity at 10 µM: 1.69%
[35]
  remaining activity at 10 µM: 8.49%
[36]
  remaining activity at 10 µM: 2.33%
[37]
  remaining activity at 10 µM: 8.78%
